Some test systems named below: ACHN; COLO 205; DU-145; HL-60; HOP-62; HOP-92; LOX IMVI; M14; MDA-N; MOLT-4; NCI-H460; NCI-H522; NCI/ADR-RES; OVCAR-5; SK-MEL-28; SR; SW-620; TK-10; UACC-62; UO-31.
Common to all, as to experiment: NCI anticancer screen, dose series, 48 h

Molecules are shown by their SMILES.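 Growth conditions: 96-well plates. Treatment: test compound, 48 hours, 5 concentrations. Analysis: linear interpolation between bracketing concentrations; unreached endpoints set to highest concentration. GI50 is the concentration that inhibits growth by half.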 Activity calls are given as the source filed them. Cut-off read from the data, not from the text of the source: active = GI50 up to about 1.1 µM and inactive = higher.

In the case of `O=C1c2ccccc2C(=O)c2c(OCC3CO3)ccc(OCC3CO3)c21` (stereo not given), the GI50 with ACHN was 0.964 µM (active); in the experiment with COLO 205, 4.44 µM (inactive); with DU-145, 3.18 µM (inactive); with HL-60 it was 0.118 µM (active); with HOP-62, 1.95 µM (inactive); with HOP-92, 2.67 µM (inactive). The GI50 in the experiment with LOX IMVI is 0.0386 µM (active); with M14 it was 1.3 µM (inactive); in the experiment on MDA-N, 3.8 µM (inactive); in the experiment on MOLT-4, 0.0653 µM (active); with NCI-H460 it was 1.99 µM (inactive); in the experiment on NCI-H522, 3.26 µM (inactive). In addition, the GI50 in the experiment on NCI/ADR-RES is 2.21 µM (inactive); in the experiment with OVCAR-5 it was 10.5 µM (inactive); in the experiment with SK-MEL-28, 5.47 µM (inactive); in the experiment with SR, 0.113 µM (active); in the experiment on SW-620, 1.1 µM (active); in the experiment on TK-10, 18.8 µM (inactive). In addition, the GI50 in the experiment on UACC-62 was 2.1 µM (inactive); in the experiment on UO-31, 2.94 µM (inactive).

In the case of `CC(CN(C)C)C(O)(c1ccccc1)c1ccccc1` (stereo not given), the GI50 in the experiment with ACHN, in the experiment on COLO 205, with DU-145, with HL-60, in the experiment with HOP-62 and with HOP-92 was > 100 µM (inactive) in each case. In addition, the GI50 with LOX IMVI, in the experiment on M14, in the experiment on MDA-N, in the experiment with MOLT-4, with NCI-H460 and in the experiment with NCI-H522 was > 100 µM (inactive) in each case. In addition, the GI50 with NCI/ADR-RES, in the experiment on OVCAR-5, with SK-MEL-28, with SR, with SW-620 and with TK-10 was > 100 µM (inactive) throughout. Besides, the GI50 in the experiment on UACC-62 and in the experiment with UO-31 was > 100 µM (inactive) each time.

Turning to `NC(=O)c1ccc(NCC2=CC(=O)C=CC2=O)cc1`, the GI50 was 17.7 µM (inactive) in the experiment on ACHN; 19.1 µM (inactive) in the experiment with COLO 205; > 100 µM (inactive) in the experiment on DU-145; 11.5 µM (inactive) in the experiment on HL-60; > 100 µM (inactive) in the experiment on HOP-62; 16.5 µM (inactive) with HOP-92. For the same compound, the GI50 was 17.5 µM (inactive) in the experiment on LOX IMVI; 16.9 µM (inactive) in the experiment on M14; 17.3 µM (inactive) with MDA-N; 18.8 µM (inactive) in the experiment on MOLT-4; > 100 µM (inactive) in the experiment with NCI-H460; 16.3 µM (inactive) with NCI-H522. In addition, the GI50 with NCI/ADR-RES was 25.6 µM (inactive); with OVCAR-5, 23 µM (inactive); in the experiment with SK-MEL-28, 20.5 µM (inactive); in the experiment on SR, 24.9 µM (inactive); in the experiment with SW-620, 21.4 µM (inactive); with TK-10 it was 17.7 µM (inactive). The GI50 with UACC-62 is 20.4 µM (inactive); in the experiment with UO-31, 17.3 µM (inactive).

Regarding `CC1(C)CCC[C@@]2(C)C1C(=O)[C@@H]1O[C@]1(C)[C@@H]2CO` (stereo not given in full), the GI50 in the experiment with ACHN was 40.3 µM (inactive); with COLO 205, 18.4 µM (inactive); in the experiment with DU-145 it was 38.5 µM (inactive); with HL-60 it was 17.4 µM (inactive); in the experiment with HOP-62, 40.2 µM (inactive); in the experiment on HOP-92, 27.8 µM (inactive). Besides, the GI50 in the experiment on LOX IMVI is 19.8 µM (inactive); with M14 it was 24.4 µM (inactive); with MDA-N it was 23.5 µM (inactive); in the experiment on MOLT-4, 39 µM (inactive); in the experiment with NCI-H460, 13.5 µM (inactive); in the experiment on NCI-H522, 22.6 µM (inactive). Further, the GI50 with NCI/ADR-RES is 48.8 µM (inactive); in the experiment with OVCAR-5, > 100 µM (inactive); with SK-MEL-28, 13.7 µM (inactive); in the experiment on SR, 0.587 µM (active); with SW-620, 24.7 µM (inactive); with TK-10, 80 µM (inactive). The GI50 in the experiment with UACC-62 was 37.2 µM (inactive); in the experiment on UO-31, 53.7 µM (inactive).

`CCCCCCCC/C=C\CCCCCCC/C=C1\C[C@](/C=C/C(=O)OC)(CO)OC1=O`: the GI50 is 2.19 µM (inactive) in the experiment with ACHN; 2.02 µM (inactive) in the experiment on COLO 205; 10.8 µM (inactive) in the experiment on DU-145; 2.15 µM (inactive) in the experiment with HL-60; 1.86 µM (inactive) in the experiment on HOP-62; 2.94 µM (inactive) in the experiment with HOP-92. Also, the GI50 is 1.38 µM (inactive) in the experiment with LOX IMVI; 1.62 µM (inactive) in the experiment on M14; 0.834 µM (active) in the experiment on MDA-N; 0.611 µM (active) with MOLT-4; 3.44 µM (inactive) with NCI-H460; 2.58 µM (inactive) in the experiment on NCI-H522. For the same compound, the GI50 in the experiment on NCI/ADR-RES is 3.47 µM (inactive); with OVCAR-5, 5.98 µM (inactive); in the experiment on SK-MEL-28 it was 1.6 µM (inactive); in the experiment on SR, 2.74 µM (inactive); in the experiment on SW-620 it was 1.78 µM (inactive); in the experiment on TK-10, 1.93 µM (inactive). Besides, the GI50 in the experiment with UACC-62 was 6.85 µM (inactive); with UO-31 it was 1.15 µM (inactive).

In the case of `COC(=O)NC(Cc1ccccc1)NC(=O)OC(C)(C)C` (stereo not given), the GI50 in the experiment on ACHN, in the experiment on COLO 205, in the experiment on DU-145, in the experiment with HL-60, in the experiment on HOP-62 and in the experiment on HOP-92 was > 100 µM (inactive) in each case. The GI50 with LOX IMVI is > 100 µM (inactive); in the experiment on M14, > 100 µM (inactive); in the experiment on MDA-N, > 100 µM (inactive); with MOLT-4, > 100 µM (inactive); with NCI-H460, > 100 µM (inactive); with NCI-H522, 96.4 µM (inactive). Moreover, the GI50 in the experiment with NCI/ADR-RES, in the experiment on OVCAR-5, with SK-MEL-28, in the experiment on SR, with SW-620 and in the experiment on TK-10 was > 100 µM (inactive) each time. The GI50 in the experiment on UACC-62 and with UO-31 was > 100 µM (inactive) throughout.

In the case of `CCc1cccc(C(C)C)c1NC1=C([n+]2ccc(C)cc2)C(=O)c2ccccc2C1=O.[O-][Cl+3]([O-])([O-])[O-]`, the GI50 was 0.275 µM (active) with ACHN; 1.1 µM (active) with COLO 205; 0.667 µM (active) in the experiment with DU-145; 1.18 µM (inactive) in the experiment with HL-60; 0.804 µM (active) with HOP-62; 0.451 µM (active) in the experiment on HOP-92. For the same compound, the GI50 in the experiment with LOX IMVI was 0.673 µM (active); in the experiment with M14, 0.944 µM (active); with MDA-N, 1.65 µM (inactive); with MOLT-4, 0.3 µM (active); with NCI-H460, 0.564 µM (active); in the experiment on NCI-H522 it was 1.32 µM (inactive). The GI50 in the experiment on NCI/ADR-RES was 4.92 µM (inactive); with OVCAR-5, 5.3 µM (inactive); with SK-MEL-28 it was 7.64 µM (inactive); in the experiment with SR, 0.0525 µM (active); with SW-620, 0.861 µM (active); in the experiment on TK-10, 7.87 µM (inactive). The GI50 was 0.822 µM (active) in the experiment with UACC-62 and 1.23 µM (inactive) in the experiment on UO-31.

The record behind these values is ChEMBL document CHEMBL1201862, “PubChem BioAssay data set” (2004).
